{"source": "patent US20260263553A1", "about": "“METHODS OF TREATING A LOCALIZED INFECTION WITH LOCALLY ADMINISTERED ANTIBIOTICS” (Osteal Therapeutics, Inc., priority 2023, published 2026)", "key": {"[1]": {"details": "in vivo; cited from earlier work"}, "common PJI organisms": {"test_system": "common PJI organisms", "assay": "Minimum biofilm eradication concentration (MBEC)", "format": "cell-based", "details": "multiple common PJI organisms", "excerpt": "The formation of biofilm, a frequent occurrence in infected wounds with a medical device in situ such as PJI, BII, or FRI, begins early after onset of infection and provides an additional mechanism of resistance to antibiotic therapy. It is well established that the organisms in a mature biofilm structure, formed in a matter of days or a few weeks, are not susceptible to common antibiotics at the typical MIC of planktonic counterparts. […] The concentration at which eradication of an organism in a biofilm is accomplished is known as the minimum biofilm eradication concentration (MBEC) for the specific antimicrobial agent and organism tested. MBEC is not the same for all antimicrobial agents used to treat the same organism, nor is it the same for one antimicrobial agent applied to different strains or organisms."}, "[2]": {"assay": "Serum concentrations during 7-day local irrigation of the infected joint (PJI clinical investigation)", "format": "in vivo, human", "details": "daily dose 2.6 g at 2,500 mcg/mL by irrigation for 7 days", "protocol": "Irrigation of vancomycin and tobramycin within the manufacturer's recommended systemic dose for the treatment of PJI has been investigated clinically. A daily dose of 2.6 g vancomycin at a concentration of 2,500 mcg/mL and a daily dose of 80 mg of tobramycin at 1,600 mcg/mL were administered by irrigation to the infected joint for 7 days following stage one surgery of a two-stage exchange arthroplasty treatment. […] The serum concentrations of vancomycin over a 7-day period for 37 human subjects who received local irrigation of 50 cc at a concentration of 2,500 mcg/mL intermittently are shown in FIG. 6."}, "[3]": {"details": "instillation of 50,000-100,000 mcg/mL once or twice daily into the joint space; cited from earlier work"}}, "data": [{"smiles": "NC[C@H]1O[C@H](O[C@H]2[C@H](O)[C@@H](O[C@H]3O[C@H](CO)[C@@H](O)[C@H](N)[C@H]3O)[C@H](N)C[C@@H]2N)[C@H](N)C[C@@H]1O", "note": "[tobramycin]", "values": [{"measurement": "maximum safe level, peak serum concentrations", "setting": "[1]", "value": 10, "unit": "µg/mL"}, {"measurement": "sustained trough levels associated with toxicity", "setting": "[1]", "value": "> 2", "unit": "µg/mL"}]}, {"smiles": "CN[C@H](CC(C)C)C(=O)N[C@H]1C(=O)N[C@@H](CC(N)=O)C(=O)N[C@H]2C(=O)N[C@H]3C(=O)N[C@H](C(=O)N[C@H](C(=O)O)c4cc(O)cc(O)c4-c4cc3ccc4O)[C@H](O)c3ccc(c(Cl)c3)Oc3cc2cc(c3O[C@@H]2O[C@H](CO)[C@@H](O)[C@H](O)[C@H]2O[C@H]2C[C@](C)(N)[C@H](O)[C@H](C)O2)Oc2ccc(cc2Cl)[C@H]1O", "note": "[vancomycin]", "values": [{"measurement": "MBEC", "setting": "common PJI organisms", "value": "greater than 4,000 mcg/mL"}, {"measurement": "maximum safe level, trough serum concentrations", "setting": "[1]", "value": 30, "unit": "µg/mL"}, {"measurement": "serum concentration levels", "setting": "[2]", "value": "well below the safe serum concentration"}, {"measurement": "serum concentrations", "setting": "[3]", "value": "serum concentrations exceeding safe limits in multiple patients"}]}]}
